Source: US8455450B2, “Methods for obtaining a therapeutically effective amount of hematopoietic precursor cells and long term engraftment thereof” (Biokine Therapeutics Ltd., priority 2006, dated 2013)
Bridge positions count the residues as written; N and C are the ends. Square brackets hold non-standard residues; d marks the D form. Peptide text beside a SMILES is read from it. * marks the point of attachment. 2Nal = N[C@@H](Cc1ccc2ccccc2c1)C(=O)O; Benzoyl(4-F) = O=C(c1ccc(F)cc1)*; Cit = NC(=O)NCCC[C@H](N)C(=O)O

Tests used:
progenitor cells = test: In vitro production of colonies, colony-forming cell assay without stromal cells; format: cell-based; conditions: no stromal cells; 4F-benzoyl-TN14003 10-500 ng/ml, G-CSF 10-500 ng/ml
Description: In order to evaluate the number of progenitor cells, a colony-forming cell assay was used. Burst forming units erythrocyte (BFU-E), colony forming units granulocyte-macrophage (CFU-GM), colony forming units megakaryocytes (CFU-M), and colony forming units granulocyte-erythrocyte-monocyte-macrophage (CFU-GEMM) were assayed by plating the cells (10^5/ml) in Iscove's-modified Dulbecco's Medium (IMDM) containing 1% methylcellulose, 15% FBS, 1% bovine serum albumin (BSA), and 4F-benzoyl-TN14003 by itself (10-500 ng/ml) or in combination with G-CSF (in concentrations of 10-500 ng/ml).

[1] = test system: hematopoietic progenitor cells (HPCs); test: Mobilization of hematopoietic progenitor cells to the blood, colony-forming cell assay; format: in vivo, C57BL/6 mice
neutrophils = test: Chemotherapy (cyclophosphamide)-induced neutropenia model, neutrophil counts; format: in vivo, C57BL/6 mice; conditions: cyclophosphamide 150 + 100 mg/kg i.p. days 1 and 4, treatment s.c. days 4-7 (4F-benzoyl-TN14003 5 mg/kg)
Description: In the chemotherapy-induced neutropenia model, a protocol as previously described was followed (Zuluaga et al., 2006). Briefly, Female C57BL/6 mice were injected intraperitoneally with 150 and 100 mg/kg of Cyclophosphamide (CPM) on days 1 and 4, respectively. Following the treatment with CPM, mice were injected s.c. with either G-CSF […], 4F-benzoyl-TN14003 (5 mg/kg) or their combination on day 4, 5, 6 and 7. Blood samples were drawn from each mouse on day 0 and two hours after G-CSF/4F-benzoyl-TN14003 injections on days 4, 5, 6 and 7. Lysis of the erythrocyte population in the blood samples was done using ACK lysis buffer. The number of neutrophils was determined by FACS after staining the cells with anti-PE-Gr-1 antibody.
Neutropenia was induced in female C57BL/6 mice by administration of a total dose of 250 mg/kg cyclophosphamide (CPM) in two 0.5 mL intraperitoneal injections scheduled at day 1 (150 mg/kg) and day 4 (100 mg/kg). The CPM protocol caused 4 days of neutropenia (from day 4 to day 8). When mice were treated with the combination of G-CSF and 4F-benzoyl-TN14003, a significant number of neutrophils was detected in the blood on day 6, as compared to mice that were treated with CPM only or with G-CSF or 4F-benzoyl-TN14003 alone (FIG. 12).

[2] = test system: granulocytes (GR-1 positive cells); test: Granulocyte (GR-1 positive) counts in blood and bone marrow in a chemotherapy model; format: in vivo, mice; conditions: CPM 250 mg/kg total i.p.; 4F-benzoyl-TN14003 5 mg/kg s.c., G-CSF 5 μg/mouse
Description: Mice received a total dose of 250 mg/kg cyclophosphamide (CPM) by two 0.25 ml intra-peritoneal injections scheduled at day 0 (150 mg/kg) and day 3 (100 mg/kg). Mice were subcutaneously treated with 0.2 ml of 4F-benzoyl-TN14003 (5 mg/kg) at the indicated time points, as detailed in FIG. 13A. Flow cytometery was used to assess the number of cells in the blood and bone marrow (BM), and distinguish between the different populations. Cells were gated according to forward scatter and side scatter to exclude dead cells and to identify granulocytes (GR-1 positive cells).
Mice received a total dose of 250 mg/kg CPM by two 0.25 ml intra-peritoneal injections scheduled at day 0 (150 mg/kg) and day 3 (100 mg/kg). Mice were subcutaneously treated with 0.2 ml of 4F-benzoyl-TN14003 (5 mg/kg) or G-CSF 5 μg/mouse or the combination of both at the indicated time points as detailed in FIG. 14A. Flow cytometery was used to assess the number of cells in the blood and bone marrow (BM) and distinguish between the different populations. Cells were gated according to forward scatter and side scatter to exclude dead cells and to determine granulocytes (GR-1 positive cells).

[3] = test system: GR-1 positive cells, MNC and progenitors; test: Cell counts in a bone marrow transplantation model; format: in vivo, mice; conditions: 900 Rad irradiation, BM transplant 5×10^6/mouse; 5 mg/kg s.c.
Source text: Mice received lethal total body irradiations of 900 Rad and were subsequently transplanted with BM cells from donor healthy mice (5×10^6/mouse). […] Flow cytometery was used to assess the number of cells in the blood and bone marrow (BM), and distinguish between the different populations. Cells were gated according to forward scatter and side scatter to exclude dead cells and to determine granulocytes (GR-1 positive cells) and mononuclear cells (MNC).

[4] = test system: hematopoietic stem cells (HSCs); test: Hematopoietic stem cell assay: transplantation of mobilized blood cells into lethally irradiated mice, survival; format: in vivo, C57BL/6 mice; conditions: 2 h
Description: C57BL/6 mice, served as donors, were injected with 5 mg/kg of either 4F-benzoyl-TN14003 or AMD3100. 2 h later peripheral blood cells were collected following by ACK lysis and transferred into C57BL/6 recipient mice that were given a lethal dosing of irradiation (900 cGy) 24 h before i.v. injection of cells. A total cell obtained from 900 or 225 microliter of blood was transferred into single recipient mouse in a total volume of 200 μl PBS. Recipient mice transferred with cells obtained from blood of untreated mice or with normal BM cells were served as controls. Survival of mice was monitored for 4 months.
Although mobilization of HPCs may be of use for short-term repopulation in a transplantation setting, HSCs are required for long-term repopulation. To assess the effect of 4F-benzoyl-TN14003 on mobilization of murine HSCs, a transplantation model was used, in which donor C57Bl/6 mice were treated with 4F-benzoyl-TN14003 or AMD3100. After 2 h, blood was collected and cells isolated from an equal volume of blood obtained from each treated group (900 or 225 microliter in different experiments) were transferred for engraftment in lethally irradiated recipient C57Bl/6 mice. Survival of the recipient mice, indicative for long-term repopulating (LTR) activity and presence of HSCs, was monitored.

[5] = 5 mg/kg s.c. 4F-benzoyl-TN14003 or AMD3100, 2 h, G-CSF 2.5 μg s.c. twice a day for 4 days, combination 18 h after last G-CSF
[6] = peak at 5 and 10 mg/kg s.c., 2 h

N=C(N)NCCC[C@H](NC(=O)[C@@H]1CSSC[C@H](NC(=O)[C@H](Cc2ccc3ccccc3c2)NC(=O)[C@H](CCCNC(=N)N)NC(=O)[C@H](CCCNC(=N)N)NC(=O)c2ccc(F)cc2)C(=O)N[C@@H](Cc2ccc(O)cc2)C(=O)N[C@@H](CCCNC(N)=O)C(=O)N[C@@H](CCCCN)C(=O)N[C@H](CCCCN)C(=O)N2CCC[C@H]2C(=O)N[C@@H](Cc2ccc(O)cc2)C(=O)N[C@@H](CCCNC(=N)N)C(=O)N[C@@H](CCCNC(N)=O)C(=O)N1)C(N)=O [4F-benzoyl-TN14003, 4F-benzoly-Arg-Arg-Nal-Cys-Tyr-Cit-Lys-DLys-Pro-Tyr-Arg-Cit-Cys-Arg-NH2] ({Benzoyl(4-F)}-RR[2Nal]CY[Cit]K[dK]PYR[Cit]CR-NH2; disulfide 4-13)
production of colonies in vitro (progenitor cells): did not stimulate the production of colonies in vitro
BFU-E in blood, fold elevation of cell counts from control [1, 5]: 26 fold
CFU-GEMM in blood, fold elevation of cell counts from control [1, 5]: 44 fold
Progenitors in blood, fold elevation of cell counts from control [1, 5]: 7.1 fold
number of progenitor cells per 1 ml of blood, fold change from control ([1]; 5 mg/kg s.c., 30 min): 3.2 fold
number of progenitor cells per 1 ml of blood, fold change from control ([1]; 5 mg/kg s.c., 1 hour): 9.5 fold
BFU-E in blood, fold change from control ([1]; 5 mg/kg s.c., 1 h post injection): more than 200 fold
number of progenitor cells per 1 ml of blood, fold change from control ([1]; 5 mg/kg s.c., 2 hours): 13.6 fold
CFU-M in blood, fold change ([1]; 5 mg/kg s.c., 4 h): 4 fold
elevation in the number of progenitor cells in blood ([1]; 5 mg/kg s.c., 24 hours post-injection): almost disappeared
CFU-GM population in blood, fold elevation from control ([1]; 5 mg/kg s.c., after 2 h): 12.5 fold
number of BFU-E in blood, fold elevation from the control level ([1]; 5 and 10 mg/kg s.c., 2 h): more than 110 fold
number of progenitor cells in 1 ml of blood, fold elevation compared to non-treated mice ([1]; 5 or 10 mg/kg s.c., 2 h): ~10 fold
number of CFU-GEMM in blood, fold elevation from the control level [1, 6]: 2.5 fold
number of CFU-GM in blood, fold elevation from the control level [1, 6]: 11.8 fold
number of CFU-M in blood, fold elevation from the control level [1, 6]: 10.4 fold
number of neutrophils in blood as % of the initial number in normal (untreated) mice (neutrophils; day 6): only a mild effect
number of neutrophils in blood as % of the initial number (neutrophils; day 7): not sufficient to elevate neutrophil counts to their normal level
GR-1 positive cells in the blood (flow cytometry) [2]: mobilize GR-1 positive cells to the blood and reduce neutropenia
relative numbers (ratio) of GR-1 positive cells in the blood and BM [2]: release cells from the inhibitory effect of the BM stroma
GR-1 and MNC cell counts in the BM [3]: stimulate GR-1 (left panel) and MNC (right panel) production in the BM
GR-1 positive cells in the blood [3]: mobilize GR-1 positive cells and reduce neutropenia
progenitor cell counts (total, CFU-GM, CFU-M, BFU-E, CFU-GEMM) in the BM [3]: stimulate production of various progenitors in the BM
survival of lethally irradiated recipient mice ([4]; cells from 225 microliter of blood of donors given 5 mg/kg, day 33 post transplantation): 70.6%
survival of lethally irradiated recipient mice ([4]; cells from 900 microliter of blood of donors given 5 mg/kg, until day 42 post transplantation): one hundred
